Source: patent publication US8937091B2 (Japan Science and Technology Agency, priority 2009, dated 2015)

What was measured:
[1] = system: SOCE (store operated calcium entry) in CHO cells; test: Assay of SOCE (store operated calcium entry)-inhibiting action; assay type: cell-based, Chinese hamster; conditions: Cricetulus griseus, CHO, CHO cells, thapsigargin, read-out: SOCE level (percentage of inhibition); for inhibition at 10 µM: test compound 10 μmol; for inhibition at 30 µM: test compound 30 μmol; for inhibition at 100 µM: test compound 100 μmol
Procedure: The extracellular fluid (i.e., medium) of cultured Chinese hamster ovary (CHO) cells was replaced by BSS containing no calcium. One minute later, a test compound was added. Two minutes later, 1 μM thapsigargin was added to cause depletion of the intracellular calcium store. Nine minutes later, calcium chloride (final concentration: 2 mM) was added to the extracellular fluid. The SOCE-inhibiting action levels at different compound concentrations after the addition of calcium chloride were determined as the percentage of inhibition (%) by evaluating the influence of the compound on the degree of increase in the intracellular calcium concentration.
(§1) Hereafter, the numerals in parentheses written after the TG level, the SOCE level, and the IICR level correspond to the test compound concentrations. The number following the name of each title compound used in the Examples below represents a compound ID number designated arbitrarily by the present inventors.

[2] = system: IICR (IP3 induced calcium release) in CHO cells; test: Assay of IICR (IP3 induced calcium release)-inhibiting action; assay type: cell-based, Chinese hamster; conditions: Cricetulus griseus, CHO, CHO cells, 10 μM ATP, read-out: IICR level (percentage of inhibition); for inhibition at 10 µM: test compound 10 μmol; for inhibition at 30 µM: test compound 30 μmol; for inhibition at 100 µM: test compound 100 μmol
Procedure: The extracellular fluid (i.e., medium) of cultured CHO cells was replaced by BSS containing calcium. One minute later, a test compound was added. Two minutes later, 10 μM ATP was added. The IICR-inhibiting action levels at different compound concentrations after the addition of ATP were determined as the percentage of inhibition (%) by evaluating the influence of the compound on the degree of increase in the intracellular calcium concentration.
as §1

O=C(CCN(CCO)CCO)c1nccs1 [Example 143, 2-(N,N-dihydroxyethyl)aminoethyl-2-thiazolylketone]
inhibition at 10 µM [1]: 0% | inhibition at 30 µM [1]: 0% | inhibition at 100 µM [1]: 10% | inhibition at 10 µM [2]: 0% | inhibition at 30 µM [2]: 50% | inhibition at 100 µM [2]: 90%

CCCCN(CCO)CCC(=O)c1ccccn1 [Example 250]
inhibition at 10 µM [1]: 0% | inhibition at 30 µM [1]: 0% | inhibition at 100 µM [1]: 0% | inhibition at 10 µM [2]: 0% | inhibition at 30 µM [2]: 10% | inhibition at 100 µM [2]: 20%

CN(CCO)CCC(=O)c1ccccn1 [Example 251, 2-(N-methyl-2-hydroxyethyl)aminoethyl-2-pyridylketone]
inhibition at 10 µM [1]: 0% | inhibition at 30 µM [1]: 0% | inhibition at 100 µM [1]: 0% | inhibition at 10 µM [2]: 0% | inhibition at 30 µM [2]: 0% | inhibition at 100 µM [2]: 0%

CCCCN(CCC(=O)c1ccco1)Cc1ccccc1 [Example 377, 2-(N-butyl-N-benzyl)aminoethyl-2-furylketone]
inhibition at 10 µM [1]: 21% | inhibition at 30 µM [1]: 0% | inhibition at 100 µM [1]: 27% | inhibition at 10 µM [2]: 22% | inhibition at 30 µM [2]: 20% | inhibition at 100 µM [2]: 36%

CCC(CO)(CO)NCCC(=O)c1ccc2c(Cl)cccc2c1 [Example 90, 2-(N-1,1-dihydroxymethylpropyl)aminoethyl-5-chloro-2-naphthylketone]
inhibition at 10 µM [1]: 0% | inhibition at 30 µM [1]: 10% | inhibition at 100 µM [1]: 30% | inhibition at 10 µM [2]: 10% | inhibition at 30 µM [2]: 20% | inhibition at 100 µM [2]: 100%

CN(CCC(=O)c1ccccn1)Cc1ccccc1 [Example 77, 2-(N-methylbenzyl)aminoethyl-2-pyridylketone]
inhibition at 10 µM [1]: 0% | inhibition at 30 µM [1]: 20% | inhibition at 100 µM [1]: 30% | inhibition at 10 µM [2]: 0% | inhibition at 30 µM [2]: 10% | inhibition at 100 µM [2]: 30%

CC(C)N(CCO)CC(=O)c1ccccc1 [Example 206, 2-(N-hydroxyethylisopropyl)aminomethylphenylketone]
inhibition at 10 µM [1]: 0% | inhibition at 30 µM [1]: 0% | inhibition at 100 µM [1]: 0% | inhibition at 10 µM [2]: 0% | inhibition at 30 µM [2]: 0% | inhibition at 100 µM [2]: 40%

O=C(CCN(CCO)CCO)c1cnccn1 [Example 102, N,N-bis(2-hydroxyethyl)aminoethyl-2-pyrazylketone]
inhibition at 10 µM [1]: 0% | inhibition at 30 µM [1]: 0% | inhibition at 100 µM [1]: 0% | inhibition at 10 µM [2]: 0% | inhibition at 30 µM [2]: 20% | inhibition at 100 µM [2]: 100%

CCc1nccnc1C(=O)CCN(Cc1ccccc1)C(C)C [Example 186, 2-(N-isopropylbenzyl)aminoethyl-2-(3-ethyl)-pyrazylketone]
inhibition at 10 µM [1]: 0% | inhibition at 30 µM [1]: 0% | inhibition at 100 µM [1]: 10% | inhibition at 10 µM [2]: 70% | inhibition at 30 µM [2]: 90% | inhibition at 100 µM [2]: 100%

CN(CCC(=O)c1ccc(Br)s1)Cc1ccccc1 [Example 326, 2-(N-benzylmethyl)aminoethyl-5-bromo-2-thienylketone]
inhibition at 10 µM [1]: 10% | inhibition at 30 µM [1]: 30% | inhibition at 100 µM [1]: 60% | inhibition at 10 µM [2]: 40% | inhibition at 30 µM [2]: 10% | inhibition at 100 µM [2]: 40%

O=C(CCNCCCCNCCC(=O)c1cnccn1)c1cnccn1 [Example 276, N,N-bis(2-pyrazoylethyl)tetramethylenediamine]
inhibition at 30 µM [1]: 0% | inhibition at 100 µM [1]: 0% | inhibition at 10 µM [2]: 0% | inhibition at 30 µM [2]: 0% | inhibition at 100 µM [2]: 20%

CN(CCO)CCC(=O)c1ccc2ccccc2c1 [Example 100, 2-(N-methylhydroxyethyl)aminoethyl-2-naphthylketone]
inhibition at 10 µM [1]: 0% | inhibition at 30 µM [1]: 0% | inhibition at 100 µM [1]: 20% | inhibition at 10 µM [2]: 0% | inhibition at 30 µM [2]: 0% | inhibition at 100 µM [2]: 60%

Cc1ccc(C(=O)CCN(C)CCO)o1 [Example 140, 2-(N-methylhydroxyethyl)aminoethyl-5-methyl-2-furylketone]
inhibition at 10 µM [1]: 0% | inhibition at 30 µM [1]: 0% | inhibition at 100 µM [1]: 0% | inhibition at 10 µM [2]: 20% | inhibition at 30 µM [2]: 20% | inhibition at 100 µM [2]: 30%

CCN(CCO)CCC(=O)c1ccc(Br)s1 [Example 331, 2-(N-2-hydroxyethylethyl)aminoethyl-5-bromo-2-thienylketone]
inhibition at 10 µM [1]: 0% | inhibition at 30 µM [1]: 10% | inhibition at 100 µM [1]: 20% | inhibition at 10 µM [2]: 0% | inhibition at 30 µM [2]: 10% | inhibition at 100 µM [2]: 70%

Cc1nc(C)c(C(=O)CCN(CCO)C(C)C)s1 [Example 257, 2-(N-isopropyl-2-hydroxyethyl)aminoethyl-2,4-dimethyl-5-thiazolylketone]
inhibition at 10 µM [1]: 0% | inhibition at 30 µM [1]: 0% | inhibition at 100 µM [1]: 0% | inhibition at 10 µM [2]: 0% | inhibition at 30 µM [2]: 0% | inhibition at 100 µM [2]: 20%

CC(C)N(CCC(=O)c1ccc(Br)s1)C(C)C [Example 395, 2-diisopropylaminoethyl-5-bromo-2-thienylketone]
inhibition at 10 µM [1]: 20% | inhibition at 30 µM [1]: 40% | inhibition at 100 µM [1]: 50% | inhibition at 10 µM [2]: 14% | inhibition at 30 µM [2]: 67% | inhibition at 100 µM [2]: 83%

O=C(CCN(CCO)CCO)c1ccncc1 [Example 249, 2-(N-bis-2-hydroxyethyl)aminoethyl-4-pyridylketone]
inhibition at 10 µM [1]: 0% | inhibition at 30 µM [1]: 0% | inhibition at 100 µM [1]: 20% | inhibition at 10 µM [2]: 0% | inhibition at 30 µM [2]: 60% | inhibition at 100 µM [2]: 80%

CCCCN(CCO)CCC(=O)c1cccnc1 [Example 180, 2-(N-2-hydroxyethylbutyl)aminoethyl-3-pyridylketone]
inhibition at 10 µM [1]: 0% | inhibition at 30 µM [1]: 0% | inhibition at 100 µM [1]: 0% | inhibition at 10 µM [2]: 0% | inhibition at 30 µM [2]: 0% | inhibition at 100 µM [2]: 50%

CCC(C)N(CCC(=O)c1ccc(I)s1)C(C)CC (centres unmarked) [Example 411]
inhibition at 10 µM [1]: 20% | inhibition at 30 µM [1]: 40% | inhibition at 100 µM [1]: 50% | inhibition at 10 µM [2]: 76% | inhibition at 30 µM [2]: 80% | inhibition at 100 µM [2]: 82%

O=C(CCNC12CC3CC(CC(C3)C1)C2)c1ccccc1 [Example 189, 2-N-adamantaneaminoethylphenylketone]
inhibition at 10 µM [1]: 0% | inhibition at 30 µM [1]: 10% | inhibition at 100 µM [1]: 10% | inhibition at 10 µM [2]: 0% | inhibition at 30 µM [2]: 0% | inhibition at 100 µM [2]: 0%

CC(CN(CCO)Cc1ccccc1)C(=O)c1ccc(F)cc1 (centres unmarked) [Example 159, 2-(N-hydroxyethylbenzyl)amino-1-methylethyl-4-fluorophenylketone]
inhibition at 10 µM [1]: 0% | inhibition at 30 µM [1]: 0% | inhibition at 100 µM [1]: 20% | inhibition at 10 µM [2]: 0% | inhibition at 30 µM [2]: 0% | inhibition at 100 µM [2]: 20%

Cc1csc(C(=O)CCN(Cc2ccccc2)Cc2ccccc2)c1 [Example 322, 2-(N-dibenzyl)aminoethyl-4-methyl-2-thienylketone]
inhibition at 10 µM [1]: 0% | inhibition at 30 µM [1]: 10% | inhibition at 100 µM [1]: 20% | inhibition at 10 µM [2]: 10% | inhibition at 30 µM [2]: 20% | inhibition at 100 µM [2]: 30%
